Entries after “also recorded” stand apart in the source; their conditions may differ.
Assays:
MT1-MMP [1] = molecular target: T1, MT1-MMP (Homo sapiens, UniProt P50281); assay: Caseinolytic activity of recombinant MT1-MMP, casein zymography; assay type: biochemical
Protocol: In FIG. 3A, the proteolytic activity of MT1-MMP and its inhibition by a tetracycline compound was assessed using casein zymography: […]

[2] = test system: HT-1080 fibrosarcoma cells; assay: Matrigel invasion of HT-1080 fibrosarcoma cells; assay type: cell-based, human; conditions: for concentration of maximal inhibition of invasion: 24 hr, 10% serum
Protocol: HT-1080 cells were allowed to invade through Matrigel (Collaborative Research, Bedford, Mass.) for 24 hr in medium containing 10% serum. CMT-3 or CMT-8 were added to the medium to assess their ability to inhibit invasivity of the cells. CMT-3 was tested at final concentrations of 1 μM or 10 μM; CMT-8 was tested twice at a final concentration of 50 μM. The invading cells were counted, and the relative numbers of cells were expressed as means of triplicate measurements.

[3] = test system: HT-1080 fibrosarcoma cells; assay: Transwell migration of HT-1080 fibrosarcoma cells; assay type: cell-based, human; conditions: 18 hr, 10% serum; for inhibition of HT-1080 fibrosarcoma cell migration: 0.5 μM
Description: HT-1080 cells were allowed to migrate in the presence of medium containing 10% serum for 18 hr in Transwell chambers (Costar, Cambridge, Mass.). […] The data are expressed as means of triplicate measurements.

studied cell lines [4] = assay: Cytotoxicity to the cells under the conditions used; assay type: cell-based; conditions: data not shown
cell surface integrins = assay: Blocking of cell surface integrins; assay type: cell-based; conditions: data not shown
studied cell lines [5] = assay: Initial attachment and spreading of cells on extracellular matrix or Matrigel substrate; assay type: cell-based; conditions: data not shown
[6] = Solubility in aqueous systems; assay type: physicochemical
[7] = rat, in vivo, po
MT1-MMP [8] = molecular target: T1, MT1-MMP; assay: Direct digestion of [3H-methyl]-gelatin by membrane fraction of MT1-MMP-transfected COS-1 cells; assay type: biochemical; conditions: 18 hr at 37° C.
Protocol: Confluent MT1-MMP-transfected COS-1 cells (2×10^7 cells) were harvested following treatment with trypsin-EDTA and washed thoroughly. Cells were suspended in 25 mM sucrose, 5 mM MgCl2 in Tris base, pH 7.4, and then subjected to nitrogen (N2) cavitation at 1000 p.s.i. for 30 min at 4° C. Whole cells and nuclei were removed by centrifugation at 770×g for 10 min, and the postnuclear supernatant was centrifuged at 6,000×g for 15 min to remove heavy organelles. The supernatant was centrifuged at 100,000×g for 60 min, and the cell membrane fraction, comprising plasma membranes, Golgi, and ribosomes, was recovered in the pellet. The 100,000×g supernatant was designated as cytosol.
Radiolabeled (^3H) collagen type I was denatured, to unravel the triple helix to produce [^3H-methyl]-gelatin. When separated by SDS-PAGE, and examined by autoradiography, the denatured collagen yields three bands: α(˜100 kDa), β(˜200 kDa), and γ(˜300 kDa), corresponding to the various components of the collagen in the sample. The tritiated gelatin substrate was incubated with a membrane fraction obtained by MT1-MMP-transfected COS-1 cells as described above. The gelatinolytic activity was calculated as % lysis of the α, β, and γ intact gelatin components assessed by laser densitometer scanning of the fluorogram.

MT1-MMP [9] = molecular target: T1, MT1-MMP; assay: Activation of pro-gelatinase A by MT1-MMP membrane fraction, gelatin zymography; assay type: biochemical; conditions: 10, 20, and 50 μM; 18 h at 37° C.
Protocol: Recombinant pro-gelatinase A (72 kDa type IV gelatinase) can be activated to from 62 kDa active gelatinase by MT-MMP-containing plasma membrane fractions. To examine the ability of a tetracycline compound to inhibit this gelatinase activating property of MT-MMP, membrane fractions obtained according to Example 1B were incubated with recombinant human pro-gelatinase A for 18 h at 37° C. with or without CMT-3, and examined by zymography to evaluate enzyme activation.
Specifically, pro-MMP-2 was obtained from the culture-conditioned medium from MMP-2-transfected COS-1 cells.
Conditioned media were collected from the cultures that had been treated with CMT-3 for 2 days. Media were then incubated with SDS-gel electrophoresis sample buffer for 30 min at room temperature, and then analyzed by gel electrophoresis on SDS-polyacrylamide gel (10%) containing gelatin (1 mg/mL; Novex, Inc.). Following electrophoresis, the gels were washed twice with 0.25% TRITON® X-100 for 30 min each (to renature the gelatinase), and incubated for 18-24 hr at 37° C. in a Tris-HCl buffer, pH 7.4 (see, e.g., Lokeshwar 1993). After incubation, the gels were briefly rinsed in distilled water and stained with 0.25% Coomassie brilliant blue R250. The location of gelatinase activity in the gels is visible as a colorless area on an otherwise uniform blue background, indicative of digested gelatin.

MT1-MMP [10] = molecular target: T1, MT1-MMP; assay: Conversion of pro-gelatinase A to active gelatinase A by recombinant MT1-MMP, SDS-PAGE; assay type: biochemical
Protocol: The proteolytic activity of MT1-MMP was assessed using gelatinase A zymography. Pure recombinant pro-MMP-2 (72 kDa gelatinase or pro-gelatinase A) and MT1-MMP were co-incubated in the presence or absence of CMT-3 (0.5-3.0 μM). After incubation, the enzyme mixture was examined by SDS-PAGE and the protein (enzyme) bands were stained with Coomassie brilliant blue.

MG-63 osteosarcoma cells = assay: MMP-2 expression and MT1-MMP-dependent activation of pro-MMP-2, concanavalin A-treated MG-63 cells, zymography; assay type: cell-based, human
Protocol: MG-63 cells, an osteosarcoma cell line, were grown in culture and treated with 40 μg/mL concanavalin A to induce MT1-MMP-dependent activation of pro-MMP-2. Culture-conditioned medium was collected, as a source of pro-MMP-2, and was incubated in the presence of the membrane fraction of COS-1 cells transfected to express MT1-MMP.

Serum half-life = conditions: in vivo
normal cells = assay: Cytotoxicity in normal cells; assay type: cell-based
[11] = test system: prostate and melanoma tumor; conditions: in vivo; Lokeshwar et al. 1998; Seftor et al. 1998; cited from earlier work

## O=S(=O)(F)Cc1ccccc1 [PMSF, reference compound]
MT1-MMP [1]; 0.5 mM
  inhibition of caseinolytic activity: did not inhibit

## C[C@H]1c2cccc(O)c2C(O)=C2C(=O)[C@]3(O)C(O)=C(C(N)=O)C(=O)C[C@@H]3[C@@H](O)[C@@H]21 [CMT-8, 6-deoxy-5α-hydroxy-4-de(dimethylamino)tetracycline]
[2]
  concentration of maximal inhibition of invasion: 50 µM
[3]
  inhibition of HT-1080 fibrosarcoma cell migration: clear inhibition; also recorded: Effective inhibition
  concentration of maximal inhibition of migration: 50 µM
Studied cell lines [4]
  cytotoxicity to the cells: not cytotoxic
Cell surface integrins
  blocking of cell surface integrins: did not block
Studied cell lines [5]
  initial attachment and spreading of studied cell lines: did not prevent

## CN(C)C1C(=O)C(C#N)=C(O)C2(O)C(=O)C3=C(O)c4c(O)cccc4C(C)(O)C3CC12 (stereo not shown) [CMT-2, tetracyclinonitrile]
[6]
  solubility in aqueous systems: low solubility
[7]
  blood levels: no detectable blood levels

## O=C(O)CN(CCN(CC(=O)O)CC(=O)O)CC(=O)O [EDTA, reference compound]
MT1-MMP [1]; 2 mM
  inhibition of caseinolytic activity: did inhibit

## NC(=O)C1=C(O)C[C@@H]2C[C@@H]3Cc4cccc(O)c4C(=O)C3=C(O)[C@]2(O)C1=O [CMT-3, 6-demethyl-6-deoxy-4-de(dimethylamino)tetracycline]
MT1-MMP [8]; 5 μM
  inhibition of gelatinolytic activity: 16.3%
MT1-MMP [8]; 10 μM
  inhibition of gelatinolytic activity: 35%
MT1-MMP [8]; 20 μM
  inhibition of gelatinolytic activity: 32%
MT1-MMP [9]
  inhibition of MT1-MMP-induced activation of pro-gelatinase A: inhibited
MT1-MMP [1]
  IC50: 1 to 3 µM
MT1-MMP [1]; 0.5, 1.5, and 3.0 μM, 50 ng MT1-MMP, β-casein 52 μM
  inhibition of caseinolytic activity: progressive inhibition of caseinolytic activity by increasing
MT1-MMP [10]; 3.0 μM
  inhibition of the formation of the smaller molecular weight species of gelatinase A: essentially completely inhibits
MT1-MMP [10]; 0.5, 1.0, 1.5 and 3.0 μM, 50 ng recombinant MT1-MMP
  inhibition of the conversion of pro-gelatinase A to active gelatinase A: progressive inhibition
MG-63 osteosarcoma cells; 0.5 μM to 3.5 μM
  gelatin-degrading activity of incubated medium: inhibited
  percent of activated MMP-2 in the total expressed MMP-2: decreased in a dose-dependent fashion
MG-63 osteosarcoma cells; 3.0 μM and 3.5 μM
  active MMP-2: no active MMP-2 was detected
[2]
  prevention of invasion in comparison to CMT-8: slightly more effective
  concentration of maximal inhibition of invasion: 50 µM
[3]
  inhibition of HT-1080 fibrosarcoma cell migration: clear inhibition; also recorded: Effective inhibition
  concentration of maximal inhibition of migration: 50 µM
Studied cell lines [4]
  cytotoxicity to the cells: not cytotoxic
Cell surface integrins
  blocking of cell surface integrins: did not block
Studied cell lines [5]
  initial attachment and spreading of studied cell lines: did not prevent
Serum half-life
  serum half-life: approximately 28 hr
Normal cells
  cytotoxicity in normal cells: little or substantially no cytotoxicity
[11]
  tumor growth and metastasis: suppress prostate and melanoma tumor growth and metastasis

From US20020045603A1, “Method of inhibiting membrane-type matrix metalloproteinase” (The Research Foundation of State University of New York, priority 1998, published 2002)
